Measured values: the supplement of paper PMC10307832

Experiments:
Experiment in all cases: relative viability (nuclei count vs DMSO), 5 days (fraction); higher = more cells survive
[1] = tested on: NCI-H3122
Method in brief: (§1)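 Lung cancer cell lines in 1536-well plates got either a single drug or a fixed anchor-drug dose together with five library-drug doses (not always all listed) in √10 steps, by pin tool, on the day after seeding. Nuclei were counted after 5 days, and relative viability is the treated-to-vehicle ratio of nuclei counts. Values are medians of duplicate plates.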

[2] = tested on: SK-MES-1
Method in brief: as §1

[3] = tested on: NCI-H2405
Method in brief: as §1

[4] = tested on: NCI-H1651
Method in brief: as §1

[5] = tested on: SW 1573
Method in brief: as §1

[6] = tested on: NCI-H2126
Method in brief: as §1

[7] = tested on: LK-2
Method in brief: as §1

[8] = tested on: NCI-H838
Method in brief: as §1

[9] = tested on: NCI-H1792
Method in brief: as §1

[10] = tested on: NCI-H661
Method in brief: as §1

[11] = tested on: ABC-1
Method in brief: as §1

[12] = tested on: NCI-H2023
Method in brief: as §1

[13] = tested on: NCI-H1395
Method in brief: as §1

[14] = tested on: HARA
Method in brief: as §1

[15] = tested on: A-427
Method in brief: as §1

[16] = tested on: LOU-NH91
Method in brief: as §1

[17] = tested on: NCI-H460
Method in brief: as §1

[18] = tested on: ChaGo-K-1
Method in brief: as §1

[19] = tested on: NCI-H1734
Method in brief: as §1

[20] = tested on: COR-L23
Method in brief: as §1

[21] = tested on: LCLC-97TM1
Method in brief: as §1

[22] = tested on: NCI-H23
Method in brief: as §1

[23] = tested on: LU99A
Method in brief: as §1

[24] = tested on: NCI-H1975
Method in brief: as §1

Nc1cccc2c1CN(C1CCC(=O)NC1=O)C2=O (stereo unspecified) [Lenalidomide] + CS(=O)(=O)N1CCN(Cc2cc3nc(-c4cccc5[nH]ncc45)nc(N4CCOCC4)c3s2)CC1 [Pictilisib] (partner 1 µM)
relative viability ([1]; first compound 0.253 µM): 0.653
relative viability ([1]; first compound 0.8 µM): 0.733
relative viability ([1]; first compound 2.53 µM): 0.589
relative viability ([1]; first compound 8 µM): 0.414
relative viability ([2]; first compound 0.253 µM): 0.373
relative viability ([2]; first compound 0.8 µM): 0.482
relative viability ([2]; first compound 2.53 µM): 0.403
relative viability ([2]; first compound 8 µM): 0.336
relative viability ([3]; first compound 0.253 µM): 0.423
relative viability ([3]; first compound 0.8 µM): 0.438
relative viability ([3]; first compound 2.53 µM): 0.37
relative viability ([3]; first compound 8 µM): 0.269
relative viability ([4]; first compound 0.253 µM): 0.674
relative viability ([4]; first compound 0.8 µM): 0.574
relative viability ([4]; first compound 2.53 µM): 0.735
relative viability ([4]; first compound 8 µM): 0.691
relative viability ([5]; first compound 0.253 µM): 0.518
relative viability ([5]; first compound 0.8 µM): 0.483
relative viability ([5]; first compound 2.53 µM): 0.504
relative viability ([5]; first compound 8 µM): 0.524
relative viability ([6]; first compound 0.253 µM): 0.501
relative viability ([6]; first compound 0.8 µM): 0.423
relative viability ([6]; first compound 2.53 µM): 0.458
relative viability ([6]; first compound 8 µM): 0.421
relative viability ([7]; first compound 0.253 µM): 0.602
relative viability ([7]; first compound 2.53 µM): 0.599
relative viability ([7]; first compound 8 µM): 0.538
relative viability ([8]; first compound 0.253 µM): 0.505
relative viability ([8]; first compound 0.8 µM): 0.318
relative viability ([8]; first compound 2.53 µM): 0.518
relative viability ([8]; first compound 8 µM): 0.387
relative viability ([9]; first compound 0.253 µM): 0.298
relative viability ([9]; first compound 0.8 µM): 0.192
relative viability ([9]; first compound 2.53 µM): 0.264
relative viability ([9]; first compound 8 µM): 0.184
relative viability ([10]; first compound 0.253 µM): 0.59
relative viability ([10]; first compound 0.8 µM): 0.369
relative viability ([10]; first compound 2.53 µM): 0.44
relative viability ([10]; first compound 8 µM): 0.329
relative viability ([11]; first compound 0.253 µM): 0.724
relative viability ([11]; first compound 0.8 µM): 0.626
relative viability ([11]; first compound 2.53 µM): 0.719
relative viability ([11]; first compound 8 µM): 0.629
relative viability ([12]; first compound 0.253 µM): 0.254
relative viability ([12]; first compound 0.8 µM): 0.176
relative viability ([12]; first compound 2.53 µM): 0.268
relative viability ([12]; first compound 8 µM): 0.187
relative viability ([13]; first compound 0.253 µM): 0.682
relative viability ([13]; first compound 2.53 µM): 0.647
relative viability ([13]; first compound 8 µM): 0.569
relative viability ([14]; first compound 0.253 µM): 0.367
relative viability ([14]; first compound 0.8 µM): 0.327
relative viability ([14]; first compound 2.53 µM): 0.438
relative viability ([14]; first compound 8 µM): 0.206
relative viability ([15]; first compound 0.253 µM): 0.796
relative viability ([15]; first compound 2.53 µM): 0.744
relative viability ([15]; first compound 8 µM): 0.676
relative viability ([16]; first compound 0.253 µM): 0.534
relative viability ([16]; first compound 0.8 µM): 0.451
relative viability ([16]; first compound 2.53 µM): 0.445
relative viability ([16]; first compound 8 µM): 0.502
relative viability ([17]; first compound 0.253 µM): 0.363
relative viability ([17]; first compound 0.8 µM): 0.263
relative viability ([17]; first compound 2.53 µM): 0.25
relative viability ([17]; first compound 8 µM): 0.264
relative viability ([18]; first compound 0.253 µM): 0.791
relative viability ([18]; first compound 2.53 µM): 0.739
relative viability ([18]; first compound 8 µM): 0.625
relative viability ([19]; first compound 0.253 µM): 0.438
relative viability ([19]; first compound 0.8 µM): 0.489
relative viability ([19]; first compound 2.53 µM): 0.465
relative viability ([19]; first compound 8 µM): 0.329
relative viability ([20]; first compound 0.253 µM): 0.778
relative viability ([20]; first compound 0.8 µM): 0.7
relative viability ([20]; first compound 2.53 µM): 0.924
relative viability ([20]; first compound 8 µM): 0.64
relative viability ([21]; first compound 0.8 µM): 0.182
relative viability ([21]; first compound 2.53 µM): 0.261
relative viability ([21]; first compound 8 µM): 0.165
relative viability ([22]; first compound 0.253 µM): 0.372
relative viability ([22]; first compound 0.8 µM): 0.576
relative viability ([22]; first compound 2.53 µM): 0.523
relative viability ([22]; first compound 8 µM): 0.378
relative viability ([23]; first compound 0.253 µM): 0.31
relative viability ([23]; first compound 0.8 µM): 0.324
relative viability ([23]; first compound 2.53 µM): 0.371
relative viability ([23]; first compound 8 µM): 0.238
relative viability ([24]; first compound 0.253 µM): 0.316
relative viability ([24]; first compound 0.8 µM): 0.228
relative viability ([24]; first compound 2.53 µM): 0.278
relative viability ([24]; first compound 8 µM): 0.223
